pIC50: −log10 of the molar value.

The nature of data set [1]: In vitro stability in liver microsomes, SD rats. In kind it is in vitro ADME. Particulars: 0.5 mg/mL. The method, then:
Purpose of the assay: Metabolic stabilities of the assay compounds in liver microsomes of CD-1 mice, SD rats, beagle dogs, cynomolgus monkeys, and human were assayed, respectively.
Procedure of the assay: Two 96-well incubation plates were prepared and named T60 incubation plate and NCF60 incubation plate, respectively. 445 μL of microsomal working solutions (liver microsomal protein concentration of 0.56 mg/mL) were added to the T60 incubation plate and the NCF60 incubation plate, respectively, and then the above incubation plates were pre-incubated in a 37° C. water bath for about 10 minutes.
After the pre-incubation, 5 μL of working solutions of the assay sample or the control compound were added to the T60 incubation plate and the NCF60 incubation plate, respectively, and the mixture was mixed well. 50 μL of potassium phosphate buffer was added to each well of the NCF60 incubation plate to initiate the reaction. 180 μL of stop solution (200 ng/mL tolbutamide and 200 ng/mL labetalol in acetonitrile) and 6 uL of NADPH regeneration system working solution were added to the T0 stop plate, and 54 μL of sample was transferred from T60 incubation plate to T0 stop plate (generation of TO sample). The reaction was initiated by adding 44 μL of NADPH regeneration system working solution to each well of the T60 incubation plate. Only 54 μL of microsome working solution, 6 uL of NADPH regeneration system working solution and 180 μL of stop solution were added to the Blank plate. Therefore, in samples of the assay compound or the control compound, the final reaction concentration of compound, testosterone, diclofenac and propafenone was 1 μM, the concentration of liver microsomes was 0.5 mg/mL, and the final reaction concentrations of DMSO and acetonitrile in the reaction system were 0.01% (v/v) and 0.99% (v/v), respectively.
After an appropriate time (e.g., 5, 15, 30, 45 and 60 minutes) of incubation, 180 μL of stop solutions (200 ng/mL tolbutamide and 200 ng/mL labetalol in acetonitrile) were added to the sample wells of each stop plate, respectively. 60 μL of sample was removed from the T60 incubation plate to stop the reaction. All sample plates were shaken well and then centrifuged at 3220×g for 20 minutes. Then 80 μL of supernatant was taken out from each well, and diluted in 240 μL of pure water for liquid chromatography-tandem mass spectrometry analysis. All samples were injected and analyzed by liquid chromatography-tandem mass spectrometry.
(Liver microsomes are a subcellular fraction often used to study metabolism.)

A short description of data set [2]: Stability assay in plasma, human. In kind it is in vitro ADME. Conditions: 2 μM, 37° C. As to the method: Purpose of the assay: Stabilities of the assay compounds in plasma of CD-1 mice and human were assayed, respectively.
Procedure of the assay: Cryopreserved plasma was thawed for 10-20 min. After the plasma was completely thawed, it was placed in a centrifuge and centrifuged at 3220×g for 5 min to remove any suspended matter and sediment in the plasma. 96-well incubation plates were prepared and named TO, T10, T30, T60, T120, respectively. 98 μL of blank plasmas of mouse, rat, canine, monkey and human were added to the corresponding incubation plates, then 2 μL of working solutions of the compound or the control compound were added to the corresponding plates in duplicate. All samples were incubated in a 37° C. water bath. The final incubation concentrations of the compound and the control compounds bisacodyl, enalapril maleate, procaine and probanthine were 2 μM, and the final organic phase content was 2.0%. At the end of incubation for each time point, the corresponding incubation plate was removed and 400 μL of a solution of 200 ng/mL of tolbutamide and labetalol in acetonitrile was added to each corresponding sample well to precipitate the protein. All sample plates were sealed and shaken well, and then centrifuged at 3220×g for 20 minutes. 50 μL of supernatant was taken out and diluted in 100 μL of ultrapure water. All samples were mixed well and then analyzed by LC/MS/MS.

Data set [3] deals with plasma protein of SD rats. In words: Protein binding rate by equilibrium dialysis, SD rats plasma. In kind it is in vitro ADME. Particulars: for Protein unbound rate: SD rats plasma, 2 μM, dialysis 4 hours. The method, then:
(§1) Purpose of the assay: Protein binding rate of the assay compounds in plasma of CD-1 mice, SD rats, beagle dogs, cynomolgus monkeys and human was determined by equilibrium dialysis.
(§2) Procedure of the assay: Plasma samples with a compound concentration of 2 μM were prepared using plasma of the above five species, placed in a 96-well equilibrium dialysis device, and dialyzed with phosphate buffer solution at 37±1° C. for 4 hours. Warfarin was used as the control compound in this assay. The concentrations of the assay compounds in plasma and dialysis buffer were determined by LC-MS/MS method.

Data set [4] has as its system plasma protein of beagle dogs. The data set can be described thus: Protein binding rate by equilibrium dialysis, beagle dogs plasma. In kind it is in vitro ADME. Particulars: 2 μM, dialysis 4 hours. As to the method: as §1, §2
In the next data set the test system is plasma protein of human. In words: Protein binding rate by equilibrium dialysis, human plasma. In kind it is in vitro ADME. Conditions: 2 μM, dialysis 4 hours. As to the method: as §1, §2
In general terms: Equilibrium dialysis compares concentrations on both sides of a semipermeable membrane.

Data set [5] has as its system KRAS^G12C-mutated MIA-PA-CA-2 cells. The data set can be described thus: Inhibition of proliferation of KRAS^G12C-mutated MIA-PA-CA-2 cells (CellTiter-Glo, 72 h). In kind it is cell-based, human. Particulars: Homo sapiens, MIA PaCa-2, 72 h incubation. The method, then:
Compounds were assayed for IC50 of inhibition of proliferation of KRAS^G12C-mutated MIA-PA-CA-2 cells.
The main reagent used in this assay included CellTiter-Glo (Promega, Cat. No. G7573).
The main instrument used in this assay was PerkinElmer EnVision multi-function microplate reader.
1.4 Method of the Assay • 1) Adherent cells were digested with trypsin to form a cell suspension, and the cell suspension was counted for later use. • 2) An appropriate amount of cells was added into a centrifuge tube, and a cell culture medium was added to make up the required volume; then the cells were plated to a 96-well plate at a final density of 2000 cells/well, 100 μL of culture medium. • 3) After incubating for 24 hr, the compound was formulated to 10 mM with DMSO, and serially diluted 3-fold with DPBS (Dulbecco's Phosphate Buffered Saline) to 9 points; 10 μL was added to each well in duplicate. 10 μL of DPBS per well was added to the assay control wells (Con). • 4) On the same day, 50 μL of CellTiter Glo was added to another cell culture plate without compounds, and the fluorescence value was read by EnVision. […] The fluorescence value was read by EnVision. • 6) Data analysis: The inhibition rate of cells in each well was calculated according to the following equation: […]
On the technique in general: In ATP-based viability assays light output follows the ATP content of the culture.

Data set [6] is described as follows: Protein binding rate by equilibrium dialysis, CD-1 mice plasma. In kind it is in vitro ADME. Particulars: CD-1, mouse, plasma; mice, as listed in PK Table 9; read-out: Plasma protein unbound rate PPB (Unbound %). As to the method:
as §1, §2

On to `C=C(F)C(=O)N1CCN(c2nc(OCC3CCCN3C)nc3c2COC(c2c(F)c(N)cc(C)c2C(F)(F)F)C3)CC1CC#N.Cl` (single isomer, unassigned) [Compound 8B hydrochloride], for which, in data set [1] (1 μM), the “CLint(liver)” value is reported as less than 17.3 mL/min/kg, the CLint(mic) is less than 9.6 µL/min/mg and the T1/2 was more than 145 min. For the same compound, the “Detection of assay compound content within 120 min” value in data set [2] is 114%. In data set [3], the Protein unbound rate turned out to be 9.8. For the same compound, the “Plasma protein unbound rate PPB (Unbound %)” value in data set [3] (SD rats, as listed in PK Table 8) was found to be 9.8%. The Protein unbound rate in data set [4] came out at 6.0. Besides, the Protein unbound rate with plasma protein of human was found to be 10.6.
For orientation: pIC50 means the negative decadic logarithm of the IC50, by convention in mol/L. The low end stands for a large IC50, the high end for a small IC50. Usually CLint scaled stands for the rate of metabolic loss divided by the concentration. Lower therefore signals greater metabolic stability. In general, half-life refers to the time in which the quantity being followed falls by half. On to `C=C(F)C(=O)N1CCN(c2nc(OC[C@@]34CCCN3C[C@H](F)C4)nc3c2COC(c2c(F)c(N)cc(C)c2C(F)(F)F)C3)C[C@@H]1CC#N` (some centres unmarked) [Compound 17], for which the pIC50 in data set [5] is 9.36. This compound also showed a CLint(mic) in data set [1] (1 μM) of 60.2 µL/min/mg. In addition, the CLint scaled at 1 μM in data set [1] (rat) was determined as 108 mL/min/kg. In addition, in data set [1] (rat), the half-life at 1 μM came to 23 min. Besides, the “Detection of assay compound content within 120 min” value in data set [2] came out at 93%. For the same compound, in data set [6], the fraction unbound at 4 h, 2 μM was 0.0154. Besides, the Protein unbound rate in data set [3] is recorded as 4.8; in data set [4], 3.3; in the data set with plasma protein of human, 4.8.

For the origin of these results see US12012404B2, “Pyrimidoheterocyclic compounds and application thereof” (D3 BIO (WUXI) CO., LTD., priority 2020, dated 2024).
